What all share (experiment): NCI anticancer screen, dose series, 48 h
In test [1] the test system is HCC-2998 colon.
Test [2] has as its system COLO 205 colon.
In test [3] the test system is SF-295 CNS.
The test system of test [4] is MALME-3M melanoma.
Test [5] has as its system SK-OV-3 ovarian.
The test system of test [6] is MDA-MB-231 breast.
Test [7] concerns TK-10 renal.
Test [8] relates to NCI-H460 lung.
Test [9] relates to SK-MEL-28 melanoma.
The subject of test [10] is UO-31 renal.
For test [11], the system named is MCF7 breast.
Test [12] concerns CAKI-1 renal.
The subject of test [13] is HOP-62 NSCLC.
Test [14] has as its system SN12C renal.
For test [15], the system named is SK-MEL-5 melanoma.
Test [16] concerns A498 renal.
Test [17] deals with OVCAR-3 ovarian.
For test [18], the system named is RPMI-8226 leukemia.
The test system of test [19] is MDA-N.

Each structure is given as a SMILES string.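 Growth conditions: 96-well plates. Treatment: test compound, 48 hours, 5 concentrations. Analysis: linear interpolation between bracketing concentrations; unreached endpoints set to highest concentration. TGI denotes the concentration required for complete inhibition of growth.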 Where a SMILES comes first, the peptide text is derived from it. The star is where a group is joined. Boc = CC(C)(C)OC(=O)* A value given as a limit tells only on which side of the number the result lay.

Turning to `CCCCCCCC/C=C\CCCCCCCC(=O)OC[C@]1(CO)CCC(=O)O1`, the TGI in test [1], in [2], in [3], in test [4], in test [5] and in test [6] was more than 100 µM each time. Besides, the TGI in test [7], in test [8], in test [9], in [10], in test [11] and in test [12] was more than 100 µM in each case. Further, the TGI in test [13], in test [14], in test [15], in [16] and in [17] was more than 100 µM in each case.

Regarding `COc1ccc([C@@H]2CC(=O)NCCCNCCCCNCCCN2)cc1`, the TGI in test [1], in test [2], in [18], in test [3], in test [4] and in test [5] was more than 100 µM in each case. In addition, the TGI in [7], in test [8], in test [9], in test [10], in test [12] and in [13] was more than 100 µM throughout. For the same compound, the TGI in test [14], in test [15] and in [16] was more than 100 µM in each case.

As to `CC(OC1CC(=O)CC2C(=O)C=CC(=O)C12)c1ccccc1` (centres undefined), the TGI was 29.7 µM in test [1]; 32 µM in test [2]; 58.5 µM in test [18]; 33 µM in test [3]; 34.9 µM in test [4]; more than 56.2 µM in test [5]. Moreover, the TGI was 31.6 µM in [7]; more than 59.4 µM in test [8]; 36.4 µM in [9]; 29.5 µM in test [10]; 31.9 µM in [12]; more than 58.8 µM in test [13]. Also, the TGI is 33.2 µM in test [14], 33.6 µM in test [15], 32 µM in test [16] and 33.3 µM in [17].

As to `CN(C)Cc1cc(C(=O)/C=C/c2ccc(Br)cc2)cc(CN(C)C)c1O`, the TGI in [1] was 27.8 µM; in [2], 3.28 µM; in test [18], 26.8 µM; in test [3], 19 µM; in test [4], 34.6 µM; in [6], 12.1 µM. Besides, the TGI was determined as 27.4 µM in test [7]; 21.9 µM in test [8]; 25.3 µM in [9]; 9.04 µM in [10]; 6.34 µM in test [12]; 17.2 µM in test [13]. In addition, the TGI came out at 14.8 µM in test [14]; 28.5 µM in test [15]; 30.4 µM in test [16]; 17 µM in test [17]; 9.81 µM in test [19].

Regarding `COc1cc(C2=C(C)[C@@H]3CN(CC=C3c3ccc(Cl)cc3)C2)c(S(=O)(=O)O)cc1OC`, the TGI in [2], in test [18], in test [3], in test [4], in [5] and in [6] was more than 100 µM in each case. Also, the TGI in test [7], in test [9], in test [10], in test [12], in test [13] and in [14] was more than 100 µM in each case. Moreover, the TGI in test [15], in test [17] and in test [19] was more than 100 µM throughout.

For the compound `CC(C)(C)OC(=O)NNC(=O)C1Cc2ccccc2OC1=O` (centres undefined), the TGI in test [1], in test [18], in test [3], in [4], in test [5] and in test [7] was more than 100 µM each time. In addition, the TGI in test [8], in test [9], in [10], in test [12], in test [13] and in test [14] was more than 100 µM in each case. In addition, the TGI in test [15], in test [17] and in [19] was more than 100 µM in each case.

Turning to `CN(C(=O)[C@@H](NC(=O)OC(C)(C)C)c1ccccc1)[C@H]1CCCC[C@@H]1N1CCCC1`, the TGI in test [2], in test [18], in [3], in [5], in test [6] and in test [7] was more than 100 µM throughout. Further, the TGI in test [9], in [10], in [11], in test [12], in [13] and in test [14] was more than 100 µM throughout. Moreover, the TGI in test [15], in test [16] and in [17] was more than 100 µM in each case.

With `COC(=O)C(Cc1c[nH]c2ccccc12)NC(=O)C(Cc1c[nH]c2ccccc12)NC(=O)C(Cc1c[nH]c2ccccc12)NC(=O)OC(C)(C)C` (stereo not drawn) (Boc-Trp-Trp-Trp-OMe; configuration not given here), the TGI is 32.9 µM in test [1]; 42.7 µM in test [2]; 58.6 µM in [18]; more than 100 µM in [4]; 93.1 µM in test [6]; 46.7 µM in test [7]. For the same compound, the TGI is 36 µM in [8]; 33.8 µM in test [9]; more than 100 µM in [10]; 32.7 µM in test [13]; 39.4 µM in test [14]; more than 100 µM in [15]. In addition, the results for the TGI in test [16] and in [19] were more than 100 µM and 40.3 µM, respectively.

Take `Cc1cc(Cl)ccc1NC(=O)C(=O)Cc1ccc([N+](=O)[O-])c([N+](=O)[O-])c1CC(=O)C(=O)Nc1ccc(Cl)cc1C`: the TGI in test [1], in [2], in [18], in [3], in [4] and in test [5] was more than 100 µM throughout. The TGI in test [7], in [8], in [9], in [10], in [12] and in test [13] was more than 100 µM in each case. Also, the TGI in [14], in test [15], in test [16] and in test [17] was more than 100 µM throughout.

For the compound `CC(C)c1cccc(C(C)C)c1NC(=O)C(=O)CC(=O)CC(c1ccccc1)c1c(O)c2ccccc2oc1=O` (centres undefined), the TGI in [1], in test [2], in [18], in test [3], in test [4] and in test [5] was more than 100 µM throughout. The TGI in [7], in test [8], in [9], in [10], in [12] and in [13] was more than 100 µM throughout. Moreover, the TGI in test [14], in [15], in [16] and in test [17] was more than 100 µM in each case.

On to `O=C(CSc1nnc(Cc2ccccc2)o1)Nc1ccccc1Cl`, for which the TGI in [1], in [2], in test [18], in test [3], in [4] and in [5] was more than 100 µM in each case. The TGI in test [7], in test [8], in [9], in test [10], in test [12] and in test [13] was more than 100 µM throughout. For the same compound, the TGI in test [14], in test [15], in test [16] and in test [17] was more than 100 µM each time.

As to `COc1cc2c(cc1OC)C(=O)Cc1ccc3c(c1CNCC2)OCO3`, the TGI in test [1], in [2], in test [18], in test [3], in [4] and in [5] was more than 100 µM throughout. The TGI in test [7], in [8], in test [9], in [10], in test [12] and in test [13] was more than 100 µM each time. Also, the TGI in test [14], in test [15], in test [16] and in [17] was more than 100 µM throughout.

For `NC(N)=NCc1ccc2c(c1)OCO2`, the TGI in test [1], in [18], in test [3], in test [4], in test [5] and in [6] was more than 100 µM in each case. Besides, the TGI in test [7], in test [8], in test [9], in test [10], in test [12] and in test [13] was more than 100 µM each time. For the same compound, the TGI in test [15] was 49.7 µM; in test [16] it was more than 100 µM; in test [17], more than 100 µM; in test [19], more than 100 µM.

The values above are taken from PubChem BioAssay (NCI).
